Measured values published in ChEMBL document CHEMBL1938322, “Towards a modern definition of vitamin E-evidence for a quinone hypothesis” (Bioorg Med Chem Lett, 2012).
≈ marks a conversion by molar mass, not a printed value.

How the values were obtained:
[1] = species on record: Rattus norvegicus; test: Prolongation of partial thromboplastin time in female Wistar rat; assay type: ADME, organism-based; settings: in vivo
[2] = system: Fibroblast; test: Ratio of CoQ10 EC50 to compound EC50 for cytoprotection against BSO-induced human FRDA primary patient fibroblasts; assay type: functional
[3] = system: Fibroblast; test: Ratio of idebenone EC50 to compound EC50 for cytoprotection against BSO-induced human FRDA primary patient fibroblasts; assay type: functional
[4] = system: Fibroblast; test: Ratio of alpha-tocopherol EC50 to compound EC50 for cytoprotection against BSO-induced human FRDA primary patient fibroblasts; assay type: functional
[5] = system: Fibroblast; test: Cytoprotective activity against BSO-induced human FRDA primary patient fibroblasts compound pretreated 12 hrs prior to BSO-induction measured after 48 hrs by calcein-AM-based cell viability assay; assay type: functional
[6] = Growth inhibition of human FRDA primary patient fibroblasts after 48 hrs by calcein-AM-based cell viability assay; set-up: species or system Fibroblast; settings: for GI50 at 48 h: FRDA primary patient fibroblasts
[7] = Growth inhibition of human primary fibroblasts after 48 hrs by calcein-AM-based cell viability assay; set-up: species or system Fibroblast
[8] = Therapeutic index, ratio of LC50 to GI50 for human FRDA primary patient fibroblasts; assay type: cell-based, Fibroblast; settings: for selectivity ratio: FRDA primary patient fibroblasts, read-out: TI
[9] = Cmax in mouse plasma at 10 mg/kg, po by HPLC analysis; assay type: ADME, organism-based; set-up: dose 10 mg/kg, route oral
[10] = Cmax in rat plasma at 100 mg/kg, po by HPLC analysis; assay type: ADME, organism-based; set-up: dose 100 mg/kg, route oral
[11] = Cmax in dog plasma at 25 mg/kg, po by HPLC analysis; assay type: ADME, organism-based, Canis lupus familiaris; set-up: dose 25 mg/kg, route oral
[12] = Tmax in mouse plasma at 10 mg/kg, po by HPLC analysis; assay type: ADME, organism-based; set-up: dose 10 mg/kg, route oral
[13] = Tmax in rat plasma at 100 mg/kg, po by HPLC analysis; assay type: ADME, organism-based; set-up: dose 100 mg/kg, route oral
[14] = Tmax in dog plasma at 25 mg/kg, po by HPLC analysis; assay type: ADME, organism-based, Canis lupus familiaris; set-up: dose 25 mg/kg, route oral
[15] = AUCt in mouse plasma at 5 mg/kg, iv by HPLC analysis; assay type: ADME, organism-based; set-up: dose 5 mg/kg, route intravenous
[16] = AUCt in mouse plasma at 10 mg/kg, po by HPLC analysis; assay type: ADME, organism-based; set-up: dose 10 mg/kg, route oral
[17] = AUCt in rat plasma at 100 mg/kg, po by HPLC analysis; assay type: ADME, organism-based; set-up: dose 100 mg/kg, route oral
[18] = AUCt in dog plasma at 25 mg/kg, po by HPLC analysis; assay type: ADME, organism-based, Canis lupus familiaris; set-up: dose 25 mg/kg, route oral
[19] = AUC (0 to infinity) in mouse plasma at 5 mg/kg, iv by HPLC analysis; assay type: ADME, organism-based; set-up: time infinity, dose 5 mg/kg, route intravenous
[20] = AUC (0 to infinity) in mouse plasma at 10 mg/kg, po by HPLC analysis; assay type: ADME, organism-based; set-up: time infinity, dose 10 mg/kg, route oral
[21] = AUC (0 to infinity) in rat plasma at 100 mg/kg, po by HPLC analysis; assay type: ADME, organism-based; set-up: time infinity, dose 100 mg/kg, route oral
[22] = AUC (0 to infinity) in dog plasma at 25 mg/kg, po by HPLC analysis; assay type: ADME, organism-based, Canis lupus familiaris; set-up: time infinity, dose 25 mg/kg, route oral
[23] = Half life in mouse plasma at 5 mg/kg, iv by HPLC analysis; assay type: ADME, organism-based; set-up: dose 5 mg/kg, route intravenous
[24] = Half life in mouse plasma at 10 mg/kg, po by HPLC analysis; assay type: ADME, organism-based; set-up: dose 10 mg/kg, route oral
[25] = Half life in rat plasma at 100 mg/kg, po by HPLC analysis; assay type: ADME, organism-based; set-up: dose 100 mg/kg, route oral
[26] = Half life in dog plasma at 25 mg/kg, po by HPLC analysis; assay type: ADME, organism-based, Canis lupus familiaris; set-up: dose 25 mg/kg, route oral
[27] = Oral bioavailability in mouse plasma at 10 mg/kg by HPLC analysis; assay type: ADME, organism-based
[28] = Clearance in mouse plasma at 5 mg/kg, iv by HPLC analysis; assay type: ADME, organism-based; set-up: dose 5 mg/kg, route intravenous
[29] = Volume of distribution in mouse plasma at 5 mg/kg, iv by HPLC analysis; assay type: ADME, organism-based; set-up: dose 5 mg/kg, route intravenous
[30] = system: Salmonella typhimurium; test: Mutagenic activity in Salmonella Typhimurium by Ames test; assay type: toxicity, organism-based; settings: salmonella enterica subsp. enterica serovar typhimurium
[31] = system: CHO; test: Induction of micronucleation in CHO cells; assay type: cell-based, Cricetulus griseus; settings: chinese hamster
[32] = molecular target: Cytochrome P450 3A4 (Homo sapiens, UniProt P08684); test: Inhibition of […] at 10 uM; assay type: ADME
Cytochrome P450 3A4, sequence (P08684 whole entry): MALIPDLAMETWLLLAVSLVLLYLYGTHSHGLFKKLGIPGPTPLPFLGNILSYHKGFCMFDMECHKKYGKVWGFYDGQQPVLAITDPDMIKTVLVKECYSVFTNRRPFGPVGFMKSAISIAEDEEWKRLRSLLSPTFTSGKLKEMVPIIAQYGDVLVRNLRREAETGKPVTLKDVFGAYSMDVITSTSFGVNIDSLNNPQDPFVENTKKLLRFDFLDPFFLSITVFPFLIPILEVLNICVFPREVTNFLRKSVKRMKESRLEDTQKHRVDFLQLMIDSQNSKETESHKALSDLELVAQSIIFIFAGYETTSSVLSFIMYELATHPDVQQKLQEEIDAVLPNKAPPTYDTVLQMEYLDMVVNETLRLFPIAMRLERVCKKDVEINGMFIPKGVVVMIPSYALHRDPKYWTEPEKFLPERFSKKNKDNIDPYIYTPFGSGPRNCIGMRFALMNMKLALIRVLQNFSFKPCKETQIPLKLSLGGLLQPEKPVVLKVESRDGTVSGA

[33] = molecular target: Cytochrome P450 2C9 (Homo sapiens, UniProt P11712); test: Inhibition of CYP2C9 at 10 uM; assay type: ADME
Cytochrome P450 2C9, sequence (P11712 whole entry): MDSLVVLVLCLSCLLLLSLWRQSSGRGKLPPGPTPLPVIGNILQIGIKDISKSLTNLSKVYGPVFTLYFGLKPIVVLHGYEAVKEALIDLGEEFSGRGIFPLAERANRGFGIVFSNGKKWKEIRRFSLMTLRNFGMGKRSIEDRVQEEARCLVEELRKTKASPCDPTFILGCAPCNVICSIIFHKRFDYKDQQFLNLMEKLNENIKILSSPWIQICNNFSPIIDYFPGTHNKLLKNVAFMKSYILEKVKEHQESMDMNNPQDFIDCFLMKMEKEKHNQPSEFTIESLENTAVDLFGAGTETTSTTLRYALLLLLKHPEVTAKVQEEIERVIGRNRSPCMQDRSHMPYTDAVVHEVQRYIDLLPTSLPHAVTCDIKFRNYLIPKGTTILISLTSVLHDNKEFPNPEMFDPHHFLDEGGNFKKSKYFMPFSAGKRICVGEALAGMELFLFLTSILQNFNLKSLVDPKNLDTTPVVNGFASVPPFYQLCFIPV

[34] = molecular target: Cytochrome P450 2C19 (Homo sapiens, UniProt P33261); test: Inhibition of CYP2C19 at 10 uM; assay type: ADME
Cytochrome P450 2C19, sequence (P33261 whole entry): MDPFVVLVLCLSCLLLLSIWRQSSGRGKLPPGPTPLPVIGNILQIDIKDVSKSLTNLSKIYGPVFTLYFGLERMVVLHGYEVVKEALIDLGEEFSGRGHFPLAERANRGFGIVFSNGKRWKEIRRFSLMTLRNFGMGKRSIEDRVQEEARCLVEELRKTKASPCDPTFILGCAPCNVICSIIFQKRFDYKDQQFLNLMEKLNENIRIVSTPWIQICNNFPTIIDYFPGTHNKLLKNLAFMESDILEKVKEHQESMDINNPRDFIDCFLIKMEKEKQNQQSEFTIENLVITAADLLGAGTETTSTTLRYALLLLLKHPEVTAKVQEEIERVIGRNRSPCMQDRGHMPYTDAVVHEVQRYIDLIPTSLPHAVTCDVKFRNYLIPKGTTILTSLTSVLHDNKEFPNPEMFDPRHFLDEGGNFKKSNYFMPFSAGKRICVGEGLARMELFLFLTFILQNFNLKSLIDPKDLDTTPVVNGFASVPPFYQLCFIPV

[35] = molecular target: Cytochrome P450 2D6 (Homo sapiens, UniProt P10635); test: Inhibition of CYP2D6 at 10 uM; assay type: ADME
Cytochrome P450 2D6, sequence (P10635 whole entry): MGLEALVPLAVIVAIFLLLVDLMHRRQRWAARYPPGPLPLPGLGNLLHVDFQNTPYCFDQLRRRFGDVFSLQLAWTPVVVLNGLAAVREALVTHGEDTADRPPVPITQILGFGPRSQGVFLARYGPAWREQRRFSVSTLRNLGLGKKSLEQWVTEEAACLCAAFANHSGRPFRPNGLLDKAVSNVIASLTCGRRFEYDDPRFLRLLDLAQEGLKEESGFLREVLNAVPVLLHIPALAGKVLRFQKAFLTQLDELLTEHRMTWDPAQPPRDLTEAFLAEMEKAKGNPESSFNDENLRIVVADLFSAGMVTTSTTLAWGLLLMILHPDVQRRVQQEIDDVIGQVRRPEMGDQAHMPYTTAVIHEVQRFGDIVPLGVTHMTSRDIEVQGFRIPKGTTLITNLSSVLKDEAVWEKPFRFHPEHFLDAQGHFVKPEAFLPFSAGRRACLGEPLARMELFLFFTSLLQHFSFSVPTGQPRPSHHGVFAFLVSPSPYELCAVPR

[36] = molecular target: T1, Cytochrome P450 1A2 (Homo sapiens, UniProt P05177); test: Inhibition of CYP1A2 at 10 uM; assay type: ADME
T1 sequence (P05177 whole entry): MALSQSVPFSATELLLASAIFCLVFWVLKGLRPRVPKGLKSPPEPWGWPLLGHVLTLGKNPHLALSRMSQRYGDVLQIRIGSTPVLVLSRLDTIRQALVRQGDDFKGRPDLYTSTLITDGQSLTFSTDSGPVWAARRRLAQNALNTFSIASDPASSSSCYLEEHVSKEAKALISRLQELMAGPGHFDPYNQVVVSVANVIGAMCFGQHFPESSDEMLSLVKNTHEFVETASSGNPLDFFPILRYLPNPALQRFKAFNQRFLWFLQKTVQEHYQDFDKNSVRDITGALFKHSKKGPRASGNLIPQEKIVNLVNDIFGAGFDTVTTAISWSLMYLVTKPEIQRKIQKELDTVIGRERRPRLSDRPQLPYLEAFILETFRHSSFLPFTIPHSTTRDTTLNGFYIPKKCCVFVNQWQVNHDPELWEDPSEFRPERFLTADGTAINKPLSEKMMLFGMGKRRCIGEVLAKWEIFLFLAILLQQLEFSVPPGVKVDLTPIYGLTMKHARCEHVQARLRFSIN

[37] = Solubility of the compound; assay type: physicochemical
[38] = system: Rattus norvegicus; test: Toxicity in Wistar rat assessed as changes in body weight up to 2000 mg/kg, qd for 14 days; assay type: organism-based; set-up: dose 2000 mg/kg; settings: in vivo, 336 h
[39] = system: Rattus norvegicus; test: Toxicity in Wistar rat assessed as changes in food intake up to 2000 mg/kg, qd for 14 days; assay type: organism-based; set-up: dose 2000 mg/kg; settings: in vivo, 336 h
[40] = system: Rattus norvegicus; test: Toxicity in Wistar rat assessed as changes in water intake up to 2000 mg/kg, qd for 14 days; assay type: organism-based; set-up: dose 2000 mg/kg; settings: in vivo, 336 h
[41] = species on record: Rattus norvegicus; test: Prolongation of partial thromboplastin time in male Wistar rat; assay type: ADME, organism-based; settings: in vivo

CC1=C(C)C(=O)C(CC[C@](C)(O)CCC[C@H](C)CCC[C@H](C)CCCC(C)C)=C(C)C1=O
Activity [1]: Dose-dependent effect
Ratio EC50 [2]: 200
Ratio EC50 [3]: 35
Ratio EC50 [4]: 7
Activity [5]: Dose-dependent effect
EC50 ([5]; Homo sapiens, Fibroblast): 36 nM
GI50 at 48 h [6]: ≥ 300 µM
GI50 at 48 h [7]: ≥ 300 µM
selectivity ratio [8]: ≥ 8330
Cmax [9]: 519 ng/mL
Cmax [10]: 3010 ng/mL
Cmax [11]: 2370 ng/mL
Tmax [12]: 1 h
Tmax [13]: 4 h
Tmax [14]: 2 h
AUC(0-t) [15]: 3980 ng·h/mL
AUC(0-t) [16]: 1980 ng·h/mL
AUC(0-t) [17]: 26400 ng·h/mL
AUC(0-t) [18]: 14200 ng·h/mL
AUC(0-inf) [19]: 4240 ng·h/mL
AUC(0-inf) [20]: 2070 ng·h/mL
AUC(0-inf) [21]: 27900 ng·h/mL
AUC(0-inf) [22]: 16800 ng·h/mL
half-life [23]: 972 min
half-life [24]: 348 min
half-life [25]: 996 min
half-life [26]: 1420 min
bioavailability [27]: 24%
clearance [28]: 20 mL/min/kg
Vd [29]: 27.6 L/kg
Activity [30]: Non-toxic
Activity [31]: Non-toxic
inhibition (INH) [32]: Not Active
inhibition (INH) [33]: Not Active
inhibition (INH) [34]: Not Active
inhibition (INH) [35]: Not Active
inhibition (INH) [36]: Not Active
solubility [37]: 10 µM (≈ 4.47 µg/mL)
Activity [38]: Non-toxic
Activity [39]: Non-toxic
Activity [40]: Non-toxic
Activity [41]: Dose-dependent effect

VITAMIN E
EC50 ([5]; fibroblast): 234 nM
GI50 ([6]; fibroblast, 48 h): ≥ 300 µM
TI ([8]; fibroblast): >= 1282

COC1=C(OC)C(=O)C(C/C=C(\C)CC/C=C(\C)CC/C=C(\C)CC/C=C(\C)CC/C=C(\C)CC/C=C(\C)CC/C=C(\C)CC/C=C(\C)CC/C=C(\C)CCC=C(C)C)=C(C)C1=O [UBIDECARENONE]
GI50 at 48 h [6]: 220 µM

COC1=C(OC)C(=O)C(CCCCCCCCCCO)=C(C)C1=O [IDEBENONE]
EC50 ([5]; Homo sapiens, Fibroblast): 592 nM
GI50 at 48 h [6]: 98 µM
selectivity ratio [8]: 165
